Data as given in patent publication US12496309B2, “Method for treatment of pancreatitis” (NovMetaPharma Co., Ltd., priority 2020, dated 2025).

Tests used:
[1] = biological target: ERRα (Homo sapiens, UniProt P11474); test: ERRα binding selectivity
[2] = biological target: ERα (Homo sapiens, UniProt P03372); test: ERα binding selectivity
[3] = Water solubility; type: physicochemical
[4] = system: CYP; test: CYP inhibition, all isoforms; type: in vitro ADME
[5] = biological target: T1, hERG (Homo sapiens, UniProt Q12809); test: hERG binding
[6] = biological target: T1, hERG; test: hERG current; type: cell-based
[7] = MS (microsomal stability) h; type: in vitro ADME, human
[8] = MS (microsomal stability) d; type: in vitro ADME, dog
[9] = MS (microsomal stability) r; type: in vitro ADME, rat
[10] = MS (microsomal stability) m; type: in vitro ADME, mouse
[11] = Permeability (PAMPA); type: in vitro ADME; details: for Papp: PAMPA
[12] = PK; type: in vivo; details: for Cmax / PK BA % / clearance / half-life / Vd: in vivo; for clearance: read-out: PK CL; for half-life: read-out: PK T½ (converted); for Vd: read-out: PK Vss
[13] = biological target: CYP 1A2 (Homo sapiens, UniProt P05177); test: CYP inhibition 1A2; type: in vitro ADME
[14] = biological target: CYP 2C9 (Homo sapiens, UniProt P11712); test: CYP inhibition 2C9; type: in vitro ADME
[15] = biological target: CYP 2C19 (Homo sapiens, UniProt P33261); test: CYP inhibition 2C19; type: in vitro ADME
[16] = biological target: CYP 2D6 (Homo sapiens, UniProt P10635); test: CYP inhibition 2D6; type: in vitro ADME
[17] = biological target: CYP 3A4 (Homo sapiens, UniProt P08684); test: CYP inhibition 3A4; type: in vitro ADME
[18] = Single dose toxicity; details: in vivo, read-out: Single dose Tax, LD50
Excerpt: Next, the inventors analyzed the toxicity of these compounds in vivo (Table 3). […]

[19] = biological target: T2, ERRγ (Homo sapiens, UniProt P62508); test: ERRγ binding
T2 sequence (P62508 1-458): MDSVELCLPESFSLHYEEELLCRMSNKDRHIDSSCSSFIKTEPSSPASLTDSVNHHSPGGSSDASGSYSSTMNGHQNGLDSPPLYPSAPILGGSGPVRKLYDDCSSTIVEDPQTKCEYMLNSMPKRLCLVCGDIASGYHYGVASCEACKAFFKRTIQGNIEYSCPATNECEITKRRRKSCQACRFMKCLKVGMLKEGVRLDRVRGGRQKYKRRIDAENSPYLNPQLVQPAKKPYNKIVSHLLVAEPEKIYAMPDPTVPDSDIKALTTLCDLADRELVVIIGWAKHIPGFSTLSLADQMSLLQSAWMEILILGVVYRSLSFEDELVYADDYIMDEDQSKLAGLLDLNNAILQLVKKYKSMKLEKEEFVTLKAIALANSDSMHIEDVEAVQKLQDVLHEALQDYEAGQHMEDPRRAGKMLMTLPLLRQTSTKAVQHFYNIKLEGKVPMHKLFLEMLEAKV

[20] = biological target: T2, ERRγ; test: ERRγ functional assay; type: biochemical
[21] = Plasma stability h; type: in vitro ADME, human
[22] = Plasma stability r; type: in vitro ADME, rat
[23] = system: Caerulein-induced acute pancreatitis; test: Caerulein-induced model of acute pancreatitis; type: in vivo, mouse; details: 20 mg/kg
Experimental: (§1) • Materials: Caerulein (C9026) and Taurolithocholic acid 3-sulfate disodium salt (TLCS; T0512) was purchased from Sigma. • Animal models: Eight to ten-week male C57BL/6 mice (Jackson Lab) were used according to an animal protocol approved by the Institutional Animal Care and Use Committee of Kyungpook National University. 1. Caerulein-Induced Model of Pancreatitis
Acute pancreatitis (AP) was induced by intraperitoneal injections of caerulein at 50 μg/kg/h given 6 times.
(§2) Upon completion of experiments with above-mentioned animal models (1) and (2), pancreas tissue were snap frozen in liquid nitrogen and stored at −80° C. for analysis of trypsin activity, for protein analysis by Western blots and for gene expression analysis by RT-qPCR. Pancreas were dissected and fixed in 10% neutral-buffered formalin and embedded in paraffin. Five-μm sections were prepared and stained with hematoxylin and eosin (H&E). Pancreas injury was determined by measuring serum amylase (K711-100, Biovision), serum lipase (MAK046, Sigma) and pancreatic tissue trypsin activity (Biovision) was determined using commercially available kit.
Next, the inventors analyzed the efficacy of the compound of Chemical Formula 1 in vivo using two different animal models of acute pancreatitis. […] They pretreated mice with a single dose of compound of Chemical Formula 1, 24 hours prior to Caerulein challenge. An additional dose of compound of Chemical Formula 1 was administered to the animals at the beginning of Caerulein challenge. Upon completion of the experimental timeline, these animals were sacrificed and serum and pancreas tissue samples were collected and analyzed.

[24] = system: TLCS-induced acute pancreatitis; test: Intraductal bile acid (TLCS) infusion model of pancreatitis; type: in vivo, mouse; details: 20 mg/kg
Excerpt: as §1, §2
Upon completion of the experimental timeline, these animals were sacrificed and serum and pancreas tissue samples were collected and analyzed.

T1 sequence (Q12809 whole entry): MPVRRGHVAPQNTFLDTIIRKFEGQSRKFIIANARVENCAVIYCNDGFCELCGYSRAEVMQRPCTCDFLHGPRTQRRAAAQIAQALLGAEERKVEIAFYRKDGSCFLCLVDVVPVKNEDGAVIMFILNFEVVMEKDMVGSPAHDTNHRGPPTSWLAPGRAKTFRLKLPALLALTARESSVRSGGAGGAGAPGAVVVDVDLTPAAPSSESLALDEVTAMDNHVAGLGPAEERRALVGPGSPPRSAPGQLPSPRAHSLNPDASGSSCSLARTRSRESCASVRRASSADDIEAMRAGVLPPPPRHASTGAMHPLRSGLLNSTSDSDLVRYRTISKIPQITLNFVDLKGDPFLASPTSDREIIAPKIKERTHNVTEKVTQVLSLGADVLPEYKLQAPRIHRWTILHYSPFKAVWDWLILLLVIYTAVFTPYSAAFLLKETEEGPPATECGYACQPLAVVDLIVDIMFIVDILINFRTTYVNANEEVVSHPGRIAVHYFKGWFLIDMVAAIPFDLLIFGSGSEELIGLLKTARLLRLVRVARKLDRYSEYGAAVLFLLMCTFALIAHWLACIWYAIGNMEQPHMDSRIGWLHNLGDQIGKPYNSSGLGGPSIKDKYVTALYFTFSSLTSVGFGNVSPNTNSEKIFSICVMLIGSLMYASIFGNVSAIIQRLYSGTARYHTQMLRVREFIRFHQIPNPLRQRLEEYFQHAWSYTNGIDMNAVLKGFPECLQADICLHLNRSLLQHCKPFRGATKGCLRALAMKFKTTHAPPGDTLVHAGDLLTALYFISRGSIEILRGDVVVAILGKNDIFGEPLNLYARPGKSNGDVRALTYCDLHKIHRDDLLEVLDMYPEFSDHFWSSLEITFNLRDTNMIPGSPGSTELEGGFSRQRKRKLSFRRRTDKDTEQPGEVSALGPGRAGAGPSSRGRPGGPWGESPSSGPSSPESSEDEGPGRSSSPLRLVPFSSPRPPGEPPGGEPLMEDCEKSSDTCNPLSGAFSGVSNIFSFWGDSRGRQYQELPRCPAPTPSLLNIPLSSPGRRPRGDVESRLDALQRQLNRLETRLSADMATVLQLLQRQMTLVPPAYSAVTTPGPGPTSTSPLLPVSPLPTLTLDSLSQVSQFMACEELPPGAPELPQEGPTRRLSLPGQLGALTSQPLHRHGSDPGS
Chain of CYP 2C9 (P11712 whole entry): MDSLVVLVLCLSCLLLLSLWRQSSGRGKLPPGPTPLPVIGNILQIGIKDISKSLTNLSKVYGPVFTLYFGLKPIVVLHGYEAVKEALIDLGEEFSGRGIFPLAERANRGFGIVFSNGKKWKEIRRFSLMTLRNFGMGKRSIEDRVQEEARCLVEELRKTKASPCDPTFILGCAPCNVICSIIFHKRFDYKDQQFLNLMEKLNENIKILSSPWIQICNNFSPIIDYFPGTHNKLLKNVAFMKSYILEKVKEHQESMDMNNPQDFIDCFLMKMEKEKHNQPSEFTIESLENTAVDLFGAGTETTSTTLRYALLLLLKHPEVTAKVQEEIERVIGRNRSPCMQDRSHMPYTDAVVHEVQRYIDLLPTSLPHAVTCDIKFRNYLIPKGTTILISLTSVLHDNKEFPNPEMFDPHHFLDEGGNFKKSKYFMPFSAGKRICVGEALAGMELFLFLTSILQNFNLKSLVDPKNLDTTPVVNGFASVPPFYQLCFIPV
Chain of ERα (P03372 whole entry): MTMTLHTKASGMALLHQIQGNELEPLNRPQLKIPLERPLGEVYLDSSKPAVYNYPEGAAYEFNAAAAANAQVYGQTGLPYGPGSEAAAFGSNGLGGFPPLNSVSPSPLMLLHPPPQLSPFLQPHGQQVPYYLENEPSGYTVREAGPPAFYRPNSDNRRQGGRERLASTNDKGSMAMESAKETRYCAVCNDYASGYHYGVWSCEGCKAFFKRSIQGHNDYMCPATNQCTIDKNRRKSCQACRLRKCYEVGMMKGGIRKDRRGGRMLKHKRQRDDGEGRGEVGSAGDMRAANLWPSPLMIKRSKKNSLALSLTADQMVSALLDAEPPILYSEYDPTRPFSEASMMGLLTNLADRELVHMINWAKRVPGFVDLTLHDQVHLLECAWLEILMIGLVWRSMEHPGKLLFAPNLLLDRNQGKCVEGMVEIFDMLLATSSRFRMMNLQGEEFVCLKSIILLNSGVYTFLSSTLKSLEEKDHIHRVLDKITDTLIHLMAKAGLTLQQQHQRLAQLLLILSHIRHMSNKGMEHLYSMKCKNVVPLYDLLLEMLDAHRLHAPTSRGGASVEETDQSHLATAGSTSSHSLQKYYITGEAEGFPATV
Chain of ERRα (P11474 whole entry): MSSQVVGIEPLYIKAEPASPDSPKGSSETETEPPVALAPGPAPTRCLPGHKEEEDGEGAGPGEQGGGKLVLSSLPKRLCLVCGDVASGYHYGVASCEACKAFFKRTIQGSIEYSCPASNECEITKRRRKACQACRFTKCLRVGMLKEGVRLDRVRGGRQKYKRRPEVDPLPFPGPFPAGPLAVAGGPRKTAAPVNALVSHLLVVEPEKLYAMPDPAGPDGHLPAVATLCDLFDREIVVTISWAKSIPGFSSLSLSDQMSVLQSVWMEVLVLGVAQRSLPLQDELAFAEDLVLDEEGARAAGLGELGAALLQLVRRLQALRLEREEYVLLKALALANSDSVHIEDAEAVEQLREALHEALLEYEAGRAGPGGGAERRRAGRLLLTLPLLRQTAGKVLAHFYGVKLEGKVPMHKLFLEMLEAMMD
Chain of CYP 2C19 (P33261 whole entry): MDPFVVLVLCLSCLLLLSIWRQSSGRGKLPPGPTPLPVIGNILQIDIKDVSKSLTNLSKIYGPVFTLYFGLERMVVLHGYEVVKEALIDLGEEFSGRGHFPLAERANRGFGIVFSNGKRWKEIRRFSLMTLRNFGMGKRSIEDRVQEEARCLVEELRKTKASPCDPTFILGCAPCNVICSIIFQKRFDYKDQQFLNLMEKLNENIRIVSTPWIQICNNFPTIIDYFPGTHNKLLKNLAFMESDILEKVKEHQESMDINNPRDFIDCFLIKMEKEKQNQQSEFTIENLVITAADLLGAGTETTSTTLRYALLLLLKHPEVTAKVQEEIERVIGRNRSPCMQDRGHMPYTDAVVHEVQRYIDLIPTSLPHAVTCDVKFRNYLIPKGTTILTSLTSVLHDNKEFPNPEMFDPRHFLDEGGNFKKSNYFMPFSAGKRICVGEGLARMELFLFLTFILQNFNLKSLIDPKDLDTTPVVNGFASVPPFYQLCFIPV
Chain of CYP 3A4 (P08684 whole entry): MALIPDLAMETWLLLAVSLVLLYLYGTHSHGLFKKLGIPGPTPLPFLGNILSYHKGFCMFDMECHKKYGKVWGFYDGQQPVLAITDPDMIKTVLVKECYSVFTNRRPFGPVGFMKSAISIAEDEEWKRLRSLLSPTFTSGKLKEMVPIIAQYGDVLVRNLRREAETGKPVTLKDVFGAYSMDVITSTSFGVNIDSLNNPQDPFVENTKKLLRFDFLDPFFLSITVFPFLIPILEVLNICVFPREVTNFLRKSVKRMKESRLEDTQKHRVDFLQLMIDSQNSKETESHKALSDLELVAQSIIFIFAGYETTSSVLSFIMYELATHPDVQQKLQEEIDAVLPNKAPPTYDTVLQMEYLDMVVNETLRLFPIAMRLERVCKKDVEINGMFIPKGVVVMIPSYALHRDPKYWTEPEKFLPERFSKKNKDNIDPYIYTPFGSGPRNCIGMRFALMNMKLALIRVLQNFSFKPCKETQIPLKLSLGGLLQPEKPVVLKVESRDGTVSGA
Chain of CYP 2D6 (P10635 whole entry): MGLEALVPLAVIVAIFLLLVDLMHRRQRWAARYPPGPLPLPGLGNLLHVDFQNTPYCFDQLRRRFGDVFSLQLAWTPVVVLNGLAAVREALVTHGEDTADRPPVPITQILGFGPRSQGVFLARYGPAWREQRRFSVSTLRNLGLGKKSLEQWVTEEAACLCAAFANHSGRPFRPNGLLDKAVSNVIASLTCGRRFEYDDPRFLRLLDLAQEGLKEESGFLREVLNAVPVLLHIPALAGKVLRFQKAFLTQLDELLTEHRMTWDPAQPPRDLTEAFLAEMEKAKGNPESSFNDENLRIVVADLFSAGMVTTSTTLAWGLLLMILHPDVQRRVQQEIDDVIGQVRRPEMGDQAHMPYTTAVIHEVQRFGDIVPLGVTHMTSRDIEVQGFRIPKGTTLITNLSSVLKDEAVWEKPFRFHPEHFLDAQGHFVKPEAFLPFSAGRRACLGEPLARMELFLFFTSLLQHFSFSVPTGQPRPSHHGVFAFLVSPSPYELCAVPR
Chain of CYP 1A2 (P05177 whole entry): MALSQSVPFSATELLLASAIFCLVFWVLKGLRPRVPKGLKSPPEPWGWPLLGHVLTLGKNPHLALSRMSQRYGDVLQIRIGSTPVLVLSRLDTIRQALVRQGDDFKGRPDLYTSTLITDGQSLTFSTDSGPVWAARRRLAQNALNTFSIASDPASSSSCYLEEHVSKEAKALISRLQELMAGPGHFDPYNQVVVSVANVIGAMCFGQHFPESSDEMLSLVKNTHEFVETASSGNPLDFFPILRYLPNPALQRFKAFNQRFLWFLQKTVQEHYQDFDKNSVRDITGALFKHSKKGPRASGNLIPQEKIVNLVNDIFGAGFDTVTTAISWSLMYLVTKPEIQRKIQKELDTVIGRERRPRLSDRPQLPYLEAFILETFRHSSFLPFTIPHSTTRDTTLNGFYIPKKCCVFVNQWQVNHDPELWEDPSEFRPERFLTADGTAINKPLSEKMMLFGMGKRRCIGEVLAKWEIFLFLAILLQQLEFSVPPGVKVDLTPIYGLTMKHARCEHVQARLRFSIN

CYP (% remaining at 10 μM), All [4] | Compound | solubility [3] [µg/mL] | IC50 [5] [µM] | IC50 [6] [µM] | MS (% of control) h [7] | MS (% of control) d [8] | MS (% of control) r [9] | MS (% of control) m [10] | Papp [11] [×10⁻⁶ cm/s] | Cmax [12] [nM] | PK BA % [12] [%] | clearance [12] [mL/min/kg] | half-life [12] [h] | Vd [12] [L/kg] | PK iv AUC [12] [μMh] | PK po AUC [12] [μMh] | LD50 [18] [mg/kg] | other results
OK All >83% | OCCC/C(=C(/c1ccc(C2CCN(C3CC3)CC2)cc1)c1cccc(O)c1)c1ccccc1 [DMRC200966, (E)-5-(5-hydroxyphenyl)-5-(4-(N-cyclopropylpiperidin-4-yl)phenyl)-4-phenylpent-4-en-1-ol] | > 1000 | 17 | > 30 | 62 % of control | 57 % of control | 50 % of control | 25 % of control | 0.014 | 1510 | 58.2 | 45 | 1.8 | 4.6 | 0.85 | 4.93 | – | IC50 [1]: > 10 µM; IC50 [2]: > 10 µM
– | CC(C)N1CCN(c2ccc(/C(=C(/CCCO)c3ccccc3)c3cccc(O)c3)cc2)CC1 [DMRC2001000, (E)-5-(5-hydroxyphenyl)-5-(4-(4-isopropylpiperazin-1-yl)phenyl)-4-phenylpent-4-en-1-ol] | > 1000 | – | – | 65 % of control | 61 % of control | 55 % of control | 27 % of control | – | – | – | – | – | – | 0.99 | 4.18 | > 2000 | CYP (% remaining at 10 μM) 1A2 [13]: 100%; CYP (% remaining at 10 μM) 2C9 [14]: 76%; CYP (% remaining at 10 μM) 2C19 [15]: 100%; CYP (% remaining at 10 μM) 2D6 [16]: 66%; CYP (% remaining at 10 μM) 3A4 [17]: 3A4(48) %; Permeability (PAMPA) [11]: 1.29 10^−6 cm/s
– | OCCC/C(=C(\c1ccc(O)cc1)c1ccc(C2CCN(C3CC3)CC2)cc1)c1ccccc1 [DMRC200699, (E)-5-(4-hydroxyphenyl)-5-(4-(N-cyclopropylpiperidin-4-yl)phenyl)-4-phenylpent-4-en-1-ol] | > 1000 | – | – | – | 92 % of control | 92 % of control | 84 % of control | 0.35 | 380 | 46 | 68 | 3 | 12 | 0.50 | 2.24 | – | –
OK All >73% | CN(C)CCOc1ccc(/C(=C(/CCCO)c2ccccc2)c2ccc(O)cc2)cc1 [GSK5182, reference compound] | > 1000 | – | – | 43 % of control | 10 % of control | 26 % of control | 7 % of control | – | – | 8.4 | 44 | – | – | 0.89 | 0.68 | – | –

Compound | CYP (% remaining at 10 μM), All [4] | solubility [3] [µg/mL] | IC50 [5] [µM] | IC50 [6] [µM] | MS (% of control) h [7] | MS (% of control) d [8] | MS (% of control) r [9] | MS (% of control) m [10] | Papp [11] [×10⁻⁶ cm/s] | Cmax [12] [nM] | PK BA % [12] [%] | clearance [12] [mL/min/kg] | half-life [12] [h] | Vd [12] [L/kg] | PK iv AUC [12] [μMh] | PK po AUC [12] [μMh] | LD50 [18] [mg/kg] | other results
CC(C)N1CCN(c2ccc(/C(=C(/CCCO)c3ccccc3)c3ccc(O)cc3)cc2)CC1 [DMRC200434, (E)-5-(4-hydroxyphenyl)-5-(4-(4-isopropylpiperazin-1-yl)phenyl)-4-phenylpent-4-en-1-ol] | OK All >64% | > 1000 | > 10 | 21.3 | 27 % of control | 50 % of control | 33 % of control | 20 % of control | 0.46 | 208 | 22 | 75 | 3.7 | 16 | 0.42 | 0.82 | > 2000 | IC50 [19]: 0.04 µM; IC50 [20]: 0.006 µM; Plasma Stability (% of remaining after 2 h) h [21]: 92.1%; Plasma Stability (% of remaining after 2 h) r [22]: 97.1%; Caerulein-induced acute pancreatitis, overall outcome [23]: rescues mice; Serum amylase ([23]; 24 h before and at start of Caerulein, vs Caerulein alone): dramatic reduction; Pancreatic histopathology (H&E) ([23]; vs Caerulein alone): dramatically improved; Pancreatic tissue trypsin activity ([23]; vs Caerulein alone): dramatic reduction; Serum lipase ([23]; vs Caerulein alone): dramatic reduction; Sodium Taurocholate-induced acute pancreatitis, overall outcome [24]: rescues mice
